A short description of data set [1]: Foam height test (vortexed paste/gel/water mixture with surfactant). The format is physicochemical. The following applies: 1% total surfactant (actives); for Total Height: 1 g surfactant-free paste of Table 1, 1 g surfactant-free gel of Table 2, 6 g water, vortex 1 minute, foam plus liquid underneath; for Liquid Height: volume of liquid underneath the foam, less than 5 mL not quantifiable. As to the method:
The test used 1% total surfactant (actives). The surfactant was added to an aqueous mixture containing 1 g of surfactant-free paste of Table 1, 1 g of the surfactant-free version of the gel of Table 2, and 6 g of water. The mixture, prepared in a centrifuge tube, is placed on a Vortex-Genie 2 (Scientific Industries) on setting 5, and allowed to vortex for 1 minute. The total height measured was the total volume of the foam plus any liquid underneath. The liquid height was the volume of liquid underneath the foam. Liquid volumes of less than 5 mL could not be quantified since the lowest level on the centrifuge tube used to conduct the foam test was 5 mL.

Data set [2] is classed as physicochemical. The following applies: paste of Table 1 with surfactant.

Read-outs that look alike come from different tables or passages of the source.

As for `O=C([O-])O.[Na+]` [sodium bicarbonate], the Saturated solution concentration entry is “about 3.8%”.

For the compound “Sodium Laureth Sulfate, 3 Ether Groups [SLES-3]”, in data set [1], the “Total Height” value came to 10 mL and the “Liquid Height” value was found to be 7 mL.

On to Cocamidopropyl Betaine [CBT], for which, in data set [1], the “Total Height” value was determined as 10 mL and the “Liquid Height” value was determined as 7 mL.

Consider “Sodium Laureth Sulfate, 2 Ether Groups [SLES-2]”, for which, in data set [1], the “Total Height” value is recorded as 9 mL and the “Liquid Height” value is 7 mL.

On to “Sodium Laureth Sulfate, 1 Ether Group [SLES-1]”, for which, in data set [1], the “Total Height” value turned out to be 9 mL and the “Liquid Height” value is 7 mL.

As to `CCCCCCCCCCOS(=O)(=O)[O-].[Na+]` [SDS, Sodium Decyl Sulfate], in data set [1], the “Total Height” value was found to be 19 mL and the “Liquid Height” value is listed as less than 5 mL.

As to `CCCCCCCCCCCCOS(=O)(=O)[O-].[Na+]` [SLS, Sodium Lauryl Sulfate], in data set [1], the “Total Height” value is 9 mL and the “Liquid Height” value is listed as 7 mL. In addition, the “Phase Behavior” value in data set [2] (stored at 100° F.) is given as “Single Phase”. Besides, in data set [2] (stored at RT), the “Phase Behavior” value was “Single Phase”.

The values are drawn from patent US20060093562A1 (priority 2004, published 2006).
